From PMC9067983, “Identification of highly selective type II kinase inhibitors with chiral peptidomimetic tails” (Journal of Enzyme Inhibition and Medicinal Chemistry, 2022)
Where a SMILES comes first, the peptide text is derived from it. [ ]: non-standard residue; d: D form. The star is where a group is joined. X1 = Cc1ccc(Nc2ncc3c(n2)N(C)C(=O)N(c2cc(C(=O)*)ccc2C)C3)cn1; Aib = CC(C)(N)C(=O)O

Key:
DSS-induced colitis mice = assay: DSS-induced colitis model; assay type: in vivo; conditions: 5 mg/kg, i.p., daily for 7 days, 4% DSS, day 7
Method: Male C57BL/6 mice (21 ± 2 g; 6 weeks) were obtained from Oriental Bio Inc. (Seongnam-si, Korea). All mice were bred under constant conditions (temperature: 22 ± 2 °C, humidity: 40–60%, light/dark cycle: 12 h). All animal experiments were conducted under the university guidelines of the ethical committee for Animal Care and Use of the Kyung Hee University (KHSASP-22–002).
Colitis in mice was induced by providing water containing 4% (w/v) DSS for 7 days. Mice were randomly divided into 5 groups (n = 6/group, Figure 8) as follows: control group treated with vehicle; DSS plus vehicle group exposed to 4% DSS and treated with vehicle; the other 3 groups consist of mice receiving 4% DSS was treated with 5-ASA (75 mg/kg/day, p.o.) as a positive control or 7a (1, 5 mg/kg/day, i.p.) daily for 7 days.
To calculate the severity of colitis, body weight, stool consistency, and occult/gross bleeding of all mice were assessed. DAI score was measured every day according to the following table (Table 5). The colon length was measured at end of the experiment.

ROCK1 = biological target: T1, ROCK1 (Homo sapiens, UniProt Q13464); assay: kinase selectivity profiling; assay type: biochemical; conditions: 10µM ATP, read-out: % inhibition (relative to DMSO)
T1 construct: purchased Reaction Biology Corp
T1 sequence (Q13464 whole entry): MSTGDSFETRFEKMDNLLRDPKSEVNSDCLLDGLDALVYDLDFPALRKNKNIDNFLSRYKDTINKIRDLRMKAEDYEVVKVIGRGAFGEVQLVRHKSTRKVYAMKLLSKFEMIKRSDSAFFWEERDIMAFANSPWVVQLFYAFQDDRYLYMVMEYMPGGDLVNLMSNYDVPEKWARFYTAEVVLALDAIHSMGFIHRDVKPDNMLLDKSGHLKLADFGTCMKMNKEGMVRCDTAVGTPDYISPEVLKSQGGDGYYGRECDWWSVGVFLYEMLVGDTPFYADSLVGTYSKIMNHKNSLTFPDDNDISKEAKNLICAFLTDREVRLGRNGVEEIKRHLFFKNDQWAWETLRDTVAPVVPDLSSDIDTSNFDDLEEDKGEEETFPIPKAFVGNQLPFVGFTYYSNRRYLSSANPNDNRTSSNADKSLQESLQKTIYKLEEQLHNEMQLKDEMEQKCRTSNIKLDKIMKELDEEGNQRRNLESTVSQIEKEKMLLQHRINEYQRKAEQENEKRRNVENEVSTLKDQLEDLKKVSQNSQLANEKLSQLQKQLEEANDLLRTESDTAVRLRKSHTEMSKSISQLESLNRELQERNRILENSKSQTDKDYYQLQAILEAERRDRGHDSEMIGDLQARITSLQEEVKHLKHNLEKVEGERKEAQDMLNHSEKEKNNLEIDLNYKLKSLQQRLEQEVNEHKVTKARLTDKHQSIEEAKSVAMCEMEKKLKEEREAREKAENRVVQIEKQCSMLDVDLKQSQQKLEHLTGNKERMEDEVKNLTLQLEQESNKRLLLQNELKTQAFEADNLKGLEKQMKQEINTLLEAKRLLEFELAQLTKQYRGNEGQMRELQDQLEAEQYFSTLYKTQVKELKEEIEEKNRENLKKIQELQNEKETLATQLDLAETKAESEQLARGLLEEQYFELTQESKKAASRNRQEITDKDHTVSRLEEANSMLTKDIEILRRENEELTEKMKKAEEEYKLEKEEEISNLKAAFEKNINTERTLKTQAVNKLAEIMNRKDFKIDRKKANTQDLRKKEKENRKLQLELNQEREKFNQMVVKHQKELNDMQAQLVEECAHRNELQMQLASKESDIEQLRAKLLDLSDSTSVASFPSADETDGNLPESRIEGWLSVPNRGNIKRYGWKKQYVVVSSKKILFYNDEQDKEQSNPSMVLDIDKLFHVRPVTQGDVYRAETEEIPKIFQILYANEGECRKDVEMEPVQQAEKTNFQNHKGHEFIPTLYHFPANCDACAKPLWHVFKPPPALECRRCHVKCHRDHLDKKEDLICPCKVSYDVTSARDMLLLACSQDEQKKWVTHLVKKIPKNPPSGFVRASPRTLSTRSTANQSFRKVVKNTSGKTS
Method: (§1) Full panel kinase profiling and kinase IC50 measurement were performed by using Reaction Biology Corp. (San Diego, USA).

P38g = biological target: T2, P38g (Homo sapiens, UniProt P53778); assay: kinase selectivity profiling; assay type: biochemical; conditions: 10µM ATP, read-out: % inhibition (relative to DMSO)
T2 construct: purchased Reaction Biology Corp
T2 sequence (P53778 whole entry): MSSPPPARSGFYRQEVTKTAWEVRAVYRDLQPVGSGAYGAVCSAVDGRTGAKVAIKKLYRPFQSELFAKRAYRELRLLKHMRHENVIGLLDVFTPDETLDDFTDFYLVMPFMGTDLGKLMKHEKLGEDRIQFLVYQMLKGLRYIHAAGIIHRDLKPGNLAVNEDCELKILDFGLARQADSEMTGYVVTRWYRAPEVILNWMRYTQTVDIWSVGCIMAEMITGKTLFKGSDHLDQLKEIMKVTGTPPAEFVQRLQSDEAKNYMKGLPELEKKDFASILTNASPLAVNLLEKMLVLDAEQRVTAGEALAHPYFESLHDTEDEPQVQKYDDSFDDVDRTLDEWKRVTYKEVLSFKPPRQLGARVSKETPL
Method: as §1

CDK18/cyclin Y (PCTK3) = biological target: T3, CDK18/cyclin Y (PCTK3) (Homo sapiens, UniProt Q07002); assay: kinase selectivity profiling; assay type: biochemical; conditions: 10µM ATP, read-out: % inhibition (relative to DMSO)
T3 construct: purchased Reaction Biology Corp
T3 sequence (Q07002 whole entry): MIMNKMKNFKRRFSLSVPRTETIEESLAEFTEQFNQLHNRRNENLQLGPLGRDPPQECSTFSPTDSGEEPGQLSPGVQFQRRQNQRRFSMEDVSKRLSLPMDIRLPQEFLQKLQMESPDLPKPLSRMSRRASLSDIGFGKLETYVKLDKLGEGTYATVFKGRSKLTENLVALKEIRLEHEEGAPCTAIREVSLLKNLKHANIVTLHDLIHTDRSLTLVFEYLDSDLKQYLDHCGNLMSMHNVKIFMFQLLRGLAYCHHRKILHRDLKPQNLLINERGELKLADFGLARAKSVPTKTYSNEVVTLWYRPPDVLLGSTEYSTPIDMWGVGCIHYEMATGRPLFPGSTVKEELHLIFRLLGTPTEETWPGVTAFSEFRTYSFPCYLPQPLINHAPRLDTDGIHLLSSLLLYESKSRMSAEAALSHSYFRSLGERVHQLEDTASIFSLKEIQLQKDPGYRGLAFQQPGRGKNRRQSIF
T3 sequence (Q8ND76 whole entry partner): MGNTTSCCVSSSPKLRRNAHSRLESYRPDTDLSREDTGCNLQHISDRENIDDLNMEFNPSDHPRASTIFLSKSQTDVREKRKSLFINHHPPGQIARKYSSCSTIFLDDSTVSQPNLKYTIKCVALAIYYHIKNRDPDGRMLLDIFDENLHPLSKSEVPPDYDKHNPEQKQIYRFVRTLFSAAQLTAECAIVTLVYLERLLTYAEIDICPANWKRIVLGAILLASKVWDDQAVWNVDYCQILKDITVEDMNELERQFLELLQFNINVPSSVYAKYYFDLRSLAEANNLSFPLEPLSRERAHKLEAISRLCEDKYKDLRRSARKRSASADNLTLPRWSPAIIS
Method: as §1

p38b/MAPK11 = biological target: T4, p38b/MAPK11 (Homo sapiens, UniProt Q15759); assay: kinase selectivity profiling; assay type: biochemical; conditions: 10µM ATP, read-out: % inhibition (relative to DMSO)
T4 construct: purchased Reaction Biology Corp
Method: as §1

PKN2/PRK2 = biological target: T5, PKN2/PRK2 (Homo sapiens, UniProt Q16513); assay: kinase selectivity profiling; assay type: biochemical; conditions: 10µM ATP, read-out: % inhibition (relative to DMSO)
T5 construct: purchased Reaction Biology Corp
Method: as §1

LKB1 = biological target: T6, LKB1 (Homo sapiens, UniProt Q15831); assay: kinase selectivity profiling; assay type: biochemical; conditions: 10µM ATP, read-out: % inhibition (relative to DMSO)
T6 construct: purchased Reaction Biology Corp
Method: as §1

PLK1 = biological target: T7, PLK1 (Homo sapiens, UniProt P53350); assay: kinase selectivity profiling; assay type: biochemical; conditions: 10µM ATP, read-out: % inhibition (relative to DMSO)
T7 construct: purchased Reaction Biology Corp
Method: as §1

IRAK4 = biological target: T8, IRAK4 (Homo sapiens, UniProt Q9NWZ3); assay: kinase selectivity profiling; assay type: biochemical; conditions: 10µM ATP, read-out: % inhibition (relative to DMSO)
T8 construct: purchased Reaction Biology Corp
Method: as §1

PAK4 = biological target: T9, PAK4 (Homo sapiens, UniProt O96013); assay: kinase selectivity profiling; assay type: biochemical; conditions: 10µM ATP, read-out: % inhibition (relative to DMSO)
T9 construct: purchased Reaction Biology Corp
Method: as §1

FLT3 = biological target: T10, FLT3 (Homo sapiens, UniProt P36888); assay: kinase selectivity profiling; assay type: biochemical; conditions: 10µM ATP, read-out: % inhibition (relative to DMSO)
T10 construct: purchased Reaction Biology Corp
T10 sequence (P36888 27-993): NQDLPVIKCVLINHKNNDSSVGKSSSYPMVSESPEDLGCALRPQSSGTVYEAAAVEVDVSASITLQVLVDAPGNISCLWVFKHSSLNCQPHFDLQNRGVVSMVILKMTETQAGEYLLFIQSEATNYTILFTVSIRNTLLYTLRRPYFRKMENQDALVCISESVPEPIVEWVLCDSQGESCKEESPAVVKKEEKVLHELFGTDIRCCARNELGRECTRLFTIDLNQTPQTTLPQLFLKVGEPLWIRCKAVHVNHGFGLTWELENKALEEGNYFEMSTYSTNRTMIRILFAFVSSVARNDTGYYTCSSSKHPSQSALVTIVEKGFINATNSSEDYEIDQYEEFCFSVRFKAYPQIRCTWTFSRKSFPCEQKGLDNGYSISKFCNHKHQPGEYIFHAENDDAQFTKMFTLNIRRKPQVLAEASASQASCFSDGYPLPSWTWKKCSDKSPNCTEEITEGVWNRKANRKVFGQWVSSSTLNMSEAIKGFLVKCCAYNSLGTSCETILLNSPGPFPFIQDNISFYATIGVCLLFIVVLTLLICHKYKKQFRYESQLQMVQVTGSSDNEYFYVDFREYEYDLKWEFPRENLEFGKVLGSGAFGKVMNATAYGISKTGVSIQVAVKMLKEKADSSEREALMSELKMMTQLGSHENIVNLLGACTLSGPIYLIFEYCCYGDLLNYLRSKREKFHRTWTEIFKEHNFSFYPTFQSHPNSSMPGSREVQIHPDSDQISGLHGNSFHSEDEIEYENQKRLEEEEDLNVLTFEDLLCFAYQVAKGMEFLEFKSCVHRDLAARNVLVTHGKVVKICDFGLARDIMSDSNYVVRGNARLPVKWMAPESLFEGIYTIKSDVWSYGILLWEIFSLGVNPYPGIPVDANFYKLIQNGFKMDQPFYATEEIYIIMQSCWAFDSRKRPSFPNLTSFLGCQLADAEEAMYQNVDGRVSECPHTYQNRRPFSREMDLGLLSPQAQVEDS
Method: as §1

GSK3a = biological target: T11, GSK3a (Homo sapiens, UniProt P49840); assay: kinase selectivity profiling; assay type: biochemical; conditions: 10µM ATP, read-out: % inhibition (relative to DMSO)
T11 construct: purchased Reaction Biology Corp
Method: as §1

BMX/ETK = biological target: T12, BMX/ETK (Homo sapiens, UniProt P51813); assay: kinase selectivity profiling; assay type: biochemical; conditions: 10µM ATP, read-out: % inhibition (relative to DMSO)
T12 construct: purchased Reaction Biology Corp
T12 sequence (P51813 whole entry): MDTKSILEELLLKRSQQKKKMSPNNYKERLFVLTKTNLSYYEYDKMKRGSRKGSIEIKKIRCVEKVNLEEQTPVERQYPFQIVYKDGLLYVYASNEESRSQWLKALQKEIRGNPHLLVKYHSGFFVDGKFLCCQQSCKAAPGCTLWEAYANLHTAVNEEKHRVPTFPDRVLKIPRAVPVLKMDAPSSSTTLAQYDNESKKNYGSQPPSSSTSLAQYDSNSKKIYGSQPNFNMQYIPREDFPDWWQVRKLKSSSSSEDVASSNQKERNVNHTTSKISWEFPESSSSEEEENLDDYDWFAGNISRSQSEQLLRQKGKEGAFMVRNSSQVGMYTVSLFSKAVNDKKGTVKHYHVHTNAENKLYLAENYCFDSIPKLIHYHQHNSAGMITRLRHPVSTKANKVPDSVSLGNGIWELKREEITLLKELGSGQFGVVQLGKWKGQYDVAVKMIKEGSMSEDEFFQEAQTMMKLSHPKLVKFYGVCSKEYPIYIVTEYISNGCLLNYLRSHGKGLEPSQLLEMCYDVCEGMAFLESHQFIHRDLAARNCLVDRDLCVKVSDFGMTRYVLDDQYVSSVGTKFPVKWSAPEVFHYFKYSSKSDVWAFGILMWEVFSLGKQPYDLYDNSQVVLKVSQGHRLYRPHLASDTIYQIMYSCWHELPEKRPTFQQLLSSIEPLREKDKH
Method: as §1

GRK3 = biological target: T13, GRK3 (Homo sapiens, UniProt P35626); assay: kinase selectivity profiling; assay type: biochemical; conditions: 10µM ATP, read-out: % inhibition (relative to DMSO)
T13 construct: purchased Reaction Biology Corp
T13 sequence (P35626 whole entry): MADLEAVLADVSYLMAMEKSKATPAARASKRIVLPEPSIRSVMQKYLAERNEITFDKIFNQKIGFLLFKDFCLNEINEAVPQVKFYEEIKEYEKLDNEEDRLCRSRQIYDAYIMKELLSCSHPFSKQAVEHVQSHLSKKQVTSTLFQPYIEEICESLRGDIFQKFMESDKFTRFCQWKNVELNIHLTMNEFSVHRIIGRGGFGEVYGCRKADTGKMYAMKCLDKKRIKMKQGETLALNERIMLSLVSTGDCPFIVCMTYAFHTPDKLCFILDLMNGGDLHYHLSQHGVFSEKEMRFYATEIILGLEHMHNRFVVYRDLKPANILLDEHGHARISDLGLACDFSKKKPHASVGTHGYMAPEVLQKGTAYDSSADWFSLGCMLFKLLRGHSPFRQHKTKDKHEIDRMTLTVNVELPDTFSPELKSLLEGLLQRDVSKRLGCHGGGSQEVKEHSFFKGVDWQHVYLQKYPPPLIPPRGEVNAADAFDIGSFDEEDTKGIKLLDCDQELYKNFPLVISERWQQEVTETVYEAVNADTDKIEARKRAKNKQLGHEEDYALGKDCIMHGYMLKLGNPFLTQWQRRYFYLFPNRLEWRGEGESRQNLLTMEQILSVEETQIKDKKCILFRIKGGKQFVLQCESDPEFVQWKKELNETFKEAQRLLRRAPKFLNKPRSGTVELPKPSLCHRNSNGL
Method: as §1

IGF1R = biological target: T14, IGF1R (Homo sapiens, UniProt P08069); assay: kinase selectivity profiling; assay type: biochemical; conditions: 10µM ATP, read-out: % inhibition (relative to DMSO)
T14 construct: purchased Reaction Biology Corp
Method: as §1

PKAcb = biological target: T15, PKAcb (Homo sapiens, UniProt P22694); assay: kinase selectivity profiling; assay type: biochemical; conditions: 10µM ATP, read-out: % inhibition (relative to DMSO)
T15 construct: purchased Reaction Biology Corp
Method: as §1

## Cc1ccc(Nc2ncc3c(n2)N(C)C(=O)N(c2cc(C(=O)N[C@H](C(=O)N4CCC[C@H]4C(=O)NC(C)(C)C(=O)N[C@@H](CC(C)C)C(=O)N(C)C)C(C)C)ccc2C)C3)cn1 [7a, (S)-N-(1-(((S)-1-(dimethylamino)-4-methyl-1-oxopentan-2-yl)amino)-2-methyl-1-oxopropan-2-yl)-1-((4-methyl-3-(1-methyl-7-((6-methylpyridin-3-yl)amino)-2-oxo-1,4-dihydropyrimido[4,5-d]pyrimidin-3(2H)-yl)benzoyl)-L-valyl)pyrrolidine-2-carboxamide] (X1-VP[Aib]L-NMe2)
DSS-induced colitis mice
  disease activity index (DAI) symptom changes: improved the symptom changes at the end of experiments
DSS-induced colitis mice; mean ± SE, n = 6
  colon length: 5.47 ± 0.60 cm
ROCK1
  inhibition at 1 µM: 13%
P38g
  inhibition at 1 µM: 4%
CDK18/cyclin Y (PCTK3)
  inhibition at 1 µM: 4%
p38b/MAPK11
  inhibition at 1 µM: 13%
PKN2/PRK2
  inhibition at 1 µM: 0%
LKB1
  inhibition at 1 µM: 0%
PLK1
  inhibition at 1 µM: 0%
IRAK4
  inhibition at 1 µM: 4%
PAK4
  inhibition at 1 µM: 0%
FLT3
  inhibition at 1 µM: 18%
GSK3a
  inhibition at 1 µM: 10%
BMX/ETK
  inhibition at 1 µM: 73%
GRK3
  inhibition at 1 µM: 0%
IGF1R
  inhibition at 1 µM: 0%
PKAcb
  inhibition at 1 µM: 3%
